Laboratory results as given in ChEMBL document CHEMBL1158113, “Terpenoids and a diarylheptanoid from Zingiber ottensii” (J Nat Prod, 2006).

System: Radical scavenging activity
Experiment: Antioxidant activity assessed as DPPH free radical scavenging activity after 30 mins by multilabel counter
Format: functional

Row | SMILES | IC50
1 | COc1cc(CC[C@@H](O)C[C@@H](O)CCc2ccc(O)c(OC)c2)ccc1O | 20.6 µM
2 | COc1cc(CC[C@H](O)C[C@@H](O)CCc2ccc(O)c(OC)c2)ccc1O | 20.1 µM
3 | Cc1c(C)c2c(c(C)c1O)CC[C@@](C)(CCC[C@H](C)CCC[C@H](C)CCCC(C)C)O2 [ALPHA-TOCOPHEROL] | 37.5 µM
4 | O=C1O[C@H]([C@@H](O)CO)C(O)=C1O [ASCORBIC ACID] | 35.6 µM
5 | COc1cc(CC[C@H](O)C[C@@H](O)CCc2cc(OC)c(O)c(OC)c2)ccc1O | 16.4 µM
6 | COc1cc(CC[C@@H](O)C[C@@H](O)CCc2ccc(O)c(O)c2)ccc1O (relative stereo) | 24 µM
